In patent US20040171692A1, “Modulation of bone formation” (priority 2003, published 2004):
Entries after “also recorded” stand apart in the source; their conditions may differ.

Experiments:
[1] = system: bone forming cells (whole bone marrow cells, NASP cells, neonatal rat calvariae); experiment: CFU-f and NASP cell assays in combination with neonatal rat calvarial organ cultures (bone anabolic activity); assay type: cell-based; conditions: for bone anabolic activity: useful = equivalent activity to that of PGE2, FIGS. 4-7
From the text: The main reason for the lack of understanding of the cellular basis for the actions of bone anabolic drugs is that there exists, at present, no single in vitro assay which responds to these drugs in an appropriate manner. However, we have now developed a number of assays which, when used in combination with neonatal rat calvarial organ cultures, are able to predict bone anabolic agents.
Whole bone marrow cells (BMC's) were obtained from the tibias and femurs of 125 g male Wistar rats. The bones were removed under aseptic conditions and all soft adherent tissue removed. An end of each bone was removed, a hole made in the opposing end with an 18 gauge syringe needle, and the cells isolated centrifugally [Dobson K. R., et al., Calcif. tissue Int., 65:411-413 (1999)]. The cells were dispersed in 10 ml DMEM (containing 12% FCS, 1×10^−8 M dexamethasone and […] ascorbic acid) by repeated pipetting, and a single-cell suspension achieved by forcefully expelling the cells through a 20 gauge syringe needle. The cells were then used in the protocols described below.
To analyse the numbers of fibroblastic-colony forming units (CFU-f) in either whole BMC or high density non-adherent stromal precursor (NASP) cell cultures, 10^6 nucleated BMC, or the non-adherent cells from the high density NASP cell cultures, were plated out on 55 cm^2 petri dishes in DMEM containing; 12% FCS, 1×10^−8 M dexamethasone and 50 μg/ml ascorbic acid. In the case of the CFU-f analysis of whole BMC, the test agents were added once at the beginning of the culture period. In the case of NASP cell cultures, the test agents were added at the beginning of the NASP cell cultures themselves and the CFU-f assay only used to assess the number of CFU-f generated during the NASP cell culture. The medium was changed after 5 days and, thereafter, twice weekly. The cultures were maintained for 18 days, after which the cells were washed with PBS and fixed, by the addition of cold ethanol.
After fixation, the cultures were stained for alkaline phosphatase (APase) positive, calcium positive, collagen positive and total colonies as described by Scutt & Bertram (J. Bone and Mineral Res. 10:474-489, 1995). The cultures were then photographed using a digital camera and the APase positive, calcium positive, collagen positive and total colonies quantitated using Bioimage “Intelligent Quantifier” image analysis software [Dobson K., et al., A cost effective method for the automatic quantitative analysis of fibroblastic-colony forming units with osteoblastic potential. Calcif. Tissue Int. 65:166-172 (1999)].
BMC were cultured at a density of 1.5×10^6 cells per 2 cm^2 well in 0.75 ml DMEM containing 12% FCS, 10^−8 M dexamethasone and 50 μg/ml ascorbic acid. Solutions of the agents to be tested were added to the wells and then cultured for 4 days. The numbers of NASP cells present in the supernatant were then quantitated as described above for CFU-f cultures. To do this, the cultures were gently agitated and the supernatants, containing the non-adherent cells, were transferred to 55 cm^2 petri dishes. 10 ml of DMEM containing 12% FCS, 1×10^−8 M dexamethasone, 50 μg/ml ascorbic acid was added and the cultures maintained further as described above for CFU-f cultures.
One day old rat pups were killed and the calvariae (skull cases) dissected out. The calvariae were then cut along the sagittal suture to give two hemicalvariae per foetus. Each bone was cultured in 2 ml DMEM containing 1 mg/ml BSA, 50 μg/ml ascorbic acid, 60 μg/ml penicillin, and 50 μg/ml streptomycin and 1×10^−8 M dexamethasone in 35 mm tissue culture wells. After 24 h, the medium was replaced with fresh medium, any test agent added, and the tissue cultured for a further 48 h.
In this assay, each bone was pulsed with 10 μCi of [^3H]proline for 24 h at the end of the culture period. The bones were washed successively in trichloroacetic acid (TCA), acetone, and ether, and then dried. […]

whole bone marrow cells = experiment: Fibroblastic colony forming unit (CFU-f) cultures, colony numbers; assay type: cell-based, rat
Experimental: Whole bone marrow cells (BMC's) were obtained from the tibias and femurs of 125 g male Wistar rats. The bones were removed under aseptic conditions and all soft adherent tissue removed. An end of each bone was removed, a hole made in the opposing end with an 18 gauge syringe needle, and the cells isolated centrifugally [Dobson K. R., et al., Calcif. tissue Int., 65:411-413 (1999)]. The cells were dispersed in 10 ml DMEM (containing 12% FCS, 1×10^−8 M dexamethasone and […] ascorbic acid) by repeated pipetting, and a single-cell suspension achieved by forcefully expelling the cells through a 20 gauge syringe needle. The cells were then used in the protocols described below. To analyse the numbers of fibroblastic-colony forming units (CFU-f) in either whole BMC or high density non-adherent stromal precursor (NASP) cell cultures, 10^6 nucleated BMC, or the non-adherent cells from the high density NASP cell cultures, were plated out on 55 cm^2 petri dishes in DMEM containing; 12% FCS, 1×10^−8 M dexamethasone and 50 μg/ml ascorbic acid. In the case of the CFU-f analysis of whole BMC, the test agents were added once at the beginning of the culture period. In the case of NASP cell cultures, the test agents were added at the beginning of the NASP cell cultures themselves and the CFU-f assay only used to assess the number of CFU-f generated during the NASP cell culture. The medium was changed after 5 days and, thereafter, twice weekly. The cultures were maintained for 18 days, after which the cells were washed with PBS and fixed, by the addition of cold ethanol. […] The cultures were then photographed using a digital camera and the APase positive, calcium positive, collagen positive and total colonies quantitated using Bioimage “Intelligent Quantifier” image analysis software [Dobson K., et al., A cost effective method for the automatic quantitative analysis of fibroblastic-colony forming units with osteoblastic potential. […]

MB-1.8 cells = MB-1.8 cells exposed to TZD; cited from earlier work

SMILES	bone anabolic activity [1]	colony numbers (whole bone marrow cells)	other results
CCCCC/C=C\C/C=C\CCCCCCCC(=O)O [Linoleic acid, linoleic acid]	showed bone anabolic activity		
CCCCCCCCCCCCCCCC(=O)OC [Methyl palmitate, methyl palmitate]		stimulation	
CCCCC[C@H](O)/C=C/[C@H]1C=CC(=O)[C@@H]1CCCCCCC(=O)O [PGA1]		significant dose dependent increase	response in all three assays ([1]; alkaline phosphatase activity, calcium uptake and collagen synthesis, FIG. 1): positive response; bone anabolic activity relative to PGE2 ([1]; compared with PGE2, FIGS. 1-3): comparable with that produced by PGE2; also recorded: at least as good as that of PGE2
CCCCC[C@H](O)/C=C/[C@H]1C=CC(=O)[C@@H]1C/C=C\CCCC(=O)O [PGA2]	useful activity		
CN(CCOc1ccc(CC2SC(=O)NC2=O)cc1)c1ccccn1 (centres unmarked) [TZD, 5-(4-{[N-methyl-N(2-pyridyl)-amino]ethoxy}benzyl)thiazolidine-2,4-dione]			alkaline phosphatase activity and expression of osteoblast-associated genes (MB-1.8 cells): decrease; expression of adipocyte fatty acid protein (MB-1.8 cells): enhancing
CC#CCC(C)[C@H](O)/C=C/[C@@H]1[C@H]2C/C(=C/CCCC(=O)O)C[C@H]2C[C@H]1O (some centres unmarked) [iloprost]		stimulation comparable with that of PGA1	
CCCCCCCC/C=C\CCCCCCCC(=O)O [oleic acid]	useful activity		
c1cc2c(cc1[C@H]1OC[C@H]3[C@@H]1CO[C@@H]3c1ccc3c(c1)OCO3)OCO2 [sesamin]	useful activity		
